Like-named read-outs stand apart in the source and are kept apart here.
Tests used:
[1] = system: Pentylenetetrazole-Induced Convulsion; experiment: Potentiation of Pentylenetetrazole-Induced Convulsion (inverse agonist activity); format: in vivo; details: Mus musculus; intravenous; mice; pentylenetetrazole 90 mg/kg s.c. (subconvulsive); 2-h observation; probit; read-out: ED50 (production of tonic convulsion and death)
Experimental: Potentiation of Pentylenetetrazole-Induced Convulsion
Inverse agonist activity was evaluated in this test. Groups of 8-16 mice were challenged with a dose of 90 mg/kg. s.c. of pentylenetetrazole (a subconvulsive dose) immidiately after intravenous injection of the test compound. The dose required to produce tonic convulsion and death in 50% of the animals during a 2-h observation period was calculated by the probit method.

[2] = target: benzodiazepine receptor; experiment: Binding Test to Benzodiazepine Receptor (inhibition of tritium labeled diazepam binding); set-up: species or system Wistar rats; details: 2nM tritium labeled diazepam; rat cerebral cortex; 0° C., 6 minutes; calculated from IC50
Experimental: Binding Test to Benzodiazepine Receptor
This test was carried out in the modified mehtod of Mohler et al. Science, 198, 849-851 (1977).
Receptor preparation was provided from the cerebral cortex of Wistar rats (male, 11 to 13 weeks age). Inhibitory action of the test compound on the specific binding of tritium labeled diazepam to the receptor was evaluated as follows. 2nM tritium labeled diazepam and an aqueous solution of the test compound at 5 or 6 concentrations were incubated with the receptor preparation at 0° C. for 6 minutes. The 50% inhibitory concentration (IC50) was measured by the concentration-response curve.
The inhibitory constant (Ki) was calculated according to the following equation, in which Kd is the dissociation constant of the tritium labeled diazepam and L is the concentration of the labeled ligand.

[3] = system: Pentyleneterazole-Induced Convulsion; experiment: Antagonism of Pentyleneterazole-Induced Convulsion (agonistic activity); format: in vivo, male mice; details: Mus musculus; intravenous; mice; pentylenetetrazole 125 mg/kg, s.c.; 2-h observation; probit; read-out: ED50 (prevention of tonic convulsion and death)
Experimental: Antagonism of Pentyleneterazole-Induced Convulsion
Agonistic activity was evaluated in this test. Groups of 8-16 male mice were challenged with a dose of 125 mg/kg, s.c. of pentylenetetrazole immediately after intravenous injection of the test compound. The dose required to prevent tonic convulsion and death in 50% of the animal during a 2-h observation period was calculated by the probit method.

[4] = system: mice gripping the wire with hindpaws; experiment: Traction Test; format: in vivo; details: Mus musculus, 0.5 h, read-out: Traction Test ED50
Experimental: The modified method of Courvoisier et al. (in "Psychotropic Drugs", ed. by S. Garattini & R. Ducrot. p 373. Elsevier Publishing Co., Amsterdam, 1957) was employed. Groups of 10 mice were made to hang onto a horizontal metal wire (diameter: 1 mm) by grasping and holding with their forepaws 30 minutes after oral administration of the test compound, and the number of mice gripping the wire with hindpaws within 10 sec was counted. The ED50 was calculated by the probit method.

[5] = system: conflict behavior; experiment: Anticonflict Test; format: in vivo; details: Rattus norvegicus; oral; male Wistar rats; 1 hour observation starting 30 minutes after administration; probit; read-out: Anti-conflict activity ED50
Experimental: The modified method of Geller and Seifter (Psychopharmacol, 1, 482, 1960) was employed. Groups of 5 or more male Wistar rats with well-established conflict behavior were used. A dose was determined as positive when the numbuer of electric shocks (punishment) exceeded more than 12 during a 1 hour observation period starting 30 minutes after oral administration of the test compound. The ED50 was calculated by the probit method.

[6] = oral, mice, 30 minutes after administration, gripping within 10 sec, probit

Row | Structure (SMILES) | Ki [2] | ED50 [3] | further results
1 | Cc1cc2c(ncc3nc(-c4cccs4)[nH]c32)s1 [Compound F2, 2-(Thien-2-yl)-7-methyl-1H-imidazo[4,5-d]thieno[2,3-b]pyridine] | 31.8 nM |  | ED50 [1]: 0.13 mg/kg
2 | Fc1ccc(-c2nc3cnc4ccccc4c3[nH]2)cc1 [Compound C3, 2-(4-fluorophenyl)-1H-imidazo[4,5-c]quinoline] | 15.8 nM | 2.31 mg/kg | 
3 | c1ccc2c(c1)ncc1nc(-c3ccon3)[nH]c12 [Compound C58] | 0.525 nM |  | ED50 [1]: 1.65 mg/kg
4 | Cc1cc(-c2nc3cnc4ccccc4c3[nH]2)no1 [Compound C61] | 0.661 nM | 0.74 mg/kg | 
5 | Fc1ccc2c(c1)ncc1nc(-c3ccon3)[nH]c12 [Compound C60] | 0.495 nM |  | 
6 | COc1ccc(-c2nc3cnc4ccccc4c3[nH]2)cc1 [Compound C13] | 8.73 nM | 4.61 mg/kg | 
7 | Cc1cc(-c2nc3cnc4ccccc4c3[nH]2)sn1 [Compound C68] | 1.19 nM |  | 
8 | Clc1ccc2c(c1)ncc1nc(-c3cccs3)[nH]c12 [Compound C35] | 19.5 nM |  | ED50 [1]: 1.76 mg/kg
9 | Cc1csc(-c2nc3cnc4ccccc4c3[nH]2)n1 [Compound C71] | 4.57 nM |  | ED50 [1]: 4.18 mg/kg
10 | Fc1cccc(-c2nc3cnc4ccccc4c3[nH]2)c1 [Compound C20] | 27.7 nM | 3.9 mg/kg | 
11 | Cc1cc(-c2nc3cnc4cc(F)ccc4c3[nH]2)on1 [Compound C48] | 0.907 nM | 0.59 mg/kg | ED50 [4, 6]: > 200 mg/kg; ED50 [5]: 1.8 mg/kg
12 | Cc1cc(-c2nc3cnc4ccc(F)cc4c3[nH]2)on1 [Compound C49] | 0.237 nM | 0.32 mg/kg | ED50 [4, 6]: > 200 mg/kg; ED50 [5]: 1.19 mg/kg
13 | Cc1cc(-c2nc3cnc4ccccc4c3[nH]2)on1 [Compound C45, 2-(3-methylisoxazol-5-yl)-1H-imidazo[4,5-c]quinoline] | 0.582 nM | 0.71 mg/kg | ED50 [4, 6]: > 200 mg/kg; ED50 [5]: 2.68 mg/kg
14 | c1ccc2c(c1)ncc1nc(-c3cnns3)[nH]c12 [Compound C70] | 5.4 nM |  | 
15 | Clc1ccc(-c2nc3cnc4ccccc4c3[nH]2)s1 [Compound C2] | 0.97 nM | 16 mg/kg | 
16 | Cc1cc(-c2nc3cnc4ccccc4c3[nH]2)ns1 [Compound C67] | 2.07 nM |  | 
17 | Fc1ccccc1-c1nc2cnc3ccccc3c2[nH]1 [Compound C21] | 1.8 nM | 2.05 mg/kg | 
18 | CN1C(=O)CN=C(c2ccccc2)c2cc(Cl)ccc21 [Diazepam, reference compound] |  |  | ED50 ([4]; po): 5.06 mg/kg; ED50 [5]: 1.05 mg/kg
19 | Cc1csc(-c2nc3cnc4cc(Cl)ccc4c3[nH]2)c1 [Compound C38] | 15.6 nM | 8.52 mg/kg | 
20 | CCc1cc(-c2nc3cnc4ccccc4c3[nH]2)on1 [Compound C46] | 0.97 nM | 1.2 mg/kg | 
21 | c1csc(-c2nc3cnc4sccc4c3[nH]2)c1 [Compound F7] | 725 nM |  | ED50 [1]: 0.5 mg/kg
22 | c1csc(-c2nc3cnc4ccsc4c3[nH]2)c1 [Compound K5] | 10.1 nM |  | ED50 [1]: 0.54 mg/kg
23 | Clc1ccc2c(c1)ncc1nc(-c3ccon3)[nH]c12 [Compound C59] | 1.23 nM | 3.01 mg/kg | 
